Assay results as given in US20230117034A1, “PYRAZOLOTRIAZINES” (Bayer Aktiengesellschaft, priority 2019, published 2023).
Read-outs that look alike come from different tables or passages of the source.

Experiments:
CDK9/CycT1 = target: T1, CDK9/CycT1 (Homo sapiens, UniProt P50750); assay: CDK9/CycT1 high ATP kinase assay (TR-FRET, 2 mM ATP); format: biochemical; conditions: 2 mM ATP (high ATP); median; read-out: CDK9/CyclinT1, 2 mM ATP (high ATP), IC50 (median)
T1 construct: Recombinant full-length His-tagged human CDK9 and CycT1; purchased Life Technologies PV4131; host or cells: insect cells
Procedure, shortened: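 Full-length His-tagged human CDK9/CycT1 (insect cell, ~0.5 μg/mL) preincubated 15 min at 22 °C with compound in Tris pH 8.0, MgCl2, DTT buffer before reaction with biotinylated peptide substrate at high ATP (2 mM).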

[1] = system: CAL-120, human breast adenocarcinoma cells; assay: Proliferation assay CAL-120 (crystal violet, 4 days); format: cell-based; conditions: CAL-120 cells, median, read-out: Prolif-CAL-120, IC50-[mol/l] (median)
Procedure, shortened: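 Crystal violet proliferation read-out after 4 days of compound exposure (0.01-10 µmol/L; solvent 0.1% DMSO). Extinction at 595 nm, set between zero-point (0%) and vehicle (100%), fitted with 4 parameters to give IC50.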

[2] = target: T2, CDK12 (nuclear staining in CAL-120 cells) (Homo sapiens, UniProt Q9NYV4); assay: CDK12 nuclear protein level: immunofluorescence/high content analysis (CAL-120); format: cell-based; conditions: for DC50: CAL-120 cells, 24 h, immunofluorescence, 50% reduction of nuclear CDK12 staining intensity, median, read-out: CDK12 degradation IF, DC50- [mol/l] (median); for (IC50 CDK12 high ATP) to (Degradation DC50 CDK12) ratio: ratio of IC50 CDK12 high ATP kinase assay to DC50 CDK12 degradation (IF, CAL-120)
T2 construct: endogenous in cells; host or cells: CAL-120 human breast cancer cells (DSMZ ACC 459)
Procedure, shortened: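 DC50 is the degrader concentration that halves nuclear CDK12 immunofluorescence relative to controls, measured by high-content imaging. CAL-120 cells were exposed to compound for 24 h at 37 °C before PFA fixation, and signal was normalized to DMSO and control wells.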

[3] = target: T3, CYCLIN K (nuclear staining in CAL-120 cells) (Homo sapiens, UniProt O75909); assay: CYCLIN K nuclear protein level: immunofluorescence high content analysis (CAL-120); format: cell-based; conditions: 24 h, 50% reduction of nuclear CCNK staining intensity, median, read-out: CYCLIN K degradation IF, DC50-[mol/l] (median)
T3 construct: endogenous in cells; host or cells: CAL-120 human breast cancer cells (DSMZ ACC 459)
Procedure, shortened: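 Readout is automated confocal image analysis of nuclear cyclin K immunofluorescence (Hoechst nuclei) after PFA fixation. Cells were CAL-120, exposed to compound dose-response 24 h at 37 °C; values are DC50 for halving nuclear CCNK signal relative to DMSO and control wells.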

T2 sequence (Q9NYV4 whole entry): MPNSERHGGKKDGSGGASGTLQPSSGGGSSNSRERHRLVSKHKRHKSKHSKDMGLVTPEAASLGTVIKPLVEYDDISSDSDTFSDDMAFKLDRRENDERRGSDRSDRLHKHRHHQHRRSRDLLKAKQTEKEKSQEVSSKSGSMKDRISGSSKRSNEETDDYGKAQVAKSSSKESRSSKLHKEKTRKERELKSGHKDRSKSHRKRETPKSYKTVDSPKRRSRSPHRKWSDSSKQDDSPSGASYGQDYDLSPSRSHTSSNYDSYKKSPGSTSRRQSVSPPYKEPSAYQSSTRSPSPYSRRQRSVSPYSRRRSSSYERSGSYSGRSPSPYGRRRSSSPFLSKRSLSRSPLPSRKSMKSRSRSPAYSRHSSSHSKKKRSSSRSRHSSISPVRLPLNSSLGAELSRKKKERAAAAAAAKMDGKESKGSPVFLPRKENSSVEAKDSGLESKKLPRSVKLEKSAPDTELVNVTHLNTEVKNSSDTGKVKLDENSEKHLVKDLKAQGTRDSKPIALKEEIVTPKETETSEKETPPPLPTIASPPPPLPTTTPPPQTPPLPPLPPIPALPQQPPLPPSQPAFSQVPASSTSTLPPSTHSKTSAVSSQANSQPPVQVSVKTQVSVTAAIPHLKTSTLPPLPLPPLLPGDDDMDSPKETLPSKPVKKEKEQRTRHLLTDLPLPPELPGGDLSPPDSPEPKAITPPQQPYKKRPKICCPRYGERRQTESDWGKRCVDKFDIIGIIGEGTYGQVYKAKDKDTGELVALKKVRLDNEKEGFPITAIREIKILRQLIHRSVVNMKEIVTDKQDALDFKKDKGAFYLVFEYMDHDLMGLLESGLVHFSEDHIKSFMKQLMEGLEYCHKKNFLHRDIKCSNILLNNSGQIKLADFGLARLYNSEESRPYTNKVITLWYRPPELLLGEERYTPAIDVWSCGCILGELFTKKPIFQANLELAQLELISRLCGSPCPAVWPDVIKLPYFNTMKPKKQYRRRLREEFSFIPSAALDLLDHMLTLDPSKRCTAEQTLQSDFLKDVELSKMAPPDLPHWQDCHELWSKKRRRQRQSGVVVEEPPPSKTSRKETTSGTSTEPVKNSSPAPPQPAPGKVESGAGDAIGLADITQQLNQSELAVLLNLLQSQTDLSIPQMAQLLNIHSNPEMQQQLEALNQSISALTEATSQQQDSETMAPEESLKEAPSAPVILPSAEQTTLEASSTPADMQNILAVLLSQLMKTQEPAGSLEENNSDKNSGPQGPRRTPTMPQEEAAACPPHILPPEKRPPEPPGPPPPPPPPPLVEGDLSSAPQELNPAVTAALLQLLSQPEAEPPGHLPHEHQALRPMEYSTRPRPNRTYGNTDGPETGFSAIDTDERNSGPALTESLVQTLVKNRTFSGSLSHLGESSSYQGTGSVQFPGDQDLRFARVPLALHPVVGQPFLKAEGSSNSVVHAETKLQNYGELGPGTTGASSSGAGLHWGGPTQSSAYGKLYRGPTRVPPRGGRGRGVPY
T2 sequence (O75909 whole entry partner): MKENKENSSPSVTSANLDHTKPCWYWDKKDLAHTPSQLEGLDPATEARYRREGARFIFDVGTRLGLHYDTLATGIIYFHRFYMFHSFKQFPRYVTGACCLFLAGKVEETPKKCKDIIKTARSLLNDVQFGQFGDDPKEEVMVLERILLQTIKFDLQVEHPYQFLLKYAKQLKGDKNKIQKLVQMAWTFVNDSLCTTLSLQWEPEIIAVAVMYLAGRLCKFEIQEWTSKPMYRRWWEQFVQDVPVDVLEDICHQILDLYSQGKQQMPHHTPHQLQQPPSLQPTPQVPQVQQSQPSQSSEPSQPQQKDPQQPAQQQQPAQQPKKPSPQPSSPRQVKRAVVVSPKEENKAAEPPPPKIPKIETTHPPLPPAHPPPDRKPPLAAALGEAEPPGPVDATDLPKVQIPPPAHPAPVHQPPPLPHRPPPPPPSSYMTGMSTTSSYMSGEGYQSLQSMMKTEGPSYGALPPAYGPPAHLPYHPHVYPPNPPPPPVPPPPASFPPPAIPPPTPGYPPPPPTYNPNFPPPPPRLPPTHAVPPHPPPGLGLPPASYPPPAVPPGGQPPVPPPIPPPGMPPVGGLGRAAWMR
T3 sequence (O75909 whole entry): as the sequence (O75909 whole entry partner) above
T3 sequence (Q9NYV4 whole entry partner): as the sequence (Q9NYV4 whole entry) above
T1 sequence (P50750 whole entry): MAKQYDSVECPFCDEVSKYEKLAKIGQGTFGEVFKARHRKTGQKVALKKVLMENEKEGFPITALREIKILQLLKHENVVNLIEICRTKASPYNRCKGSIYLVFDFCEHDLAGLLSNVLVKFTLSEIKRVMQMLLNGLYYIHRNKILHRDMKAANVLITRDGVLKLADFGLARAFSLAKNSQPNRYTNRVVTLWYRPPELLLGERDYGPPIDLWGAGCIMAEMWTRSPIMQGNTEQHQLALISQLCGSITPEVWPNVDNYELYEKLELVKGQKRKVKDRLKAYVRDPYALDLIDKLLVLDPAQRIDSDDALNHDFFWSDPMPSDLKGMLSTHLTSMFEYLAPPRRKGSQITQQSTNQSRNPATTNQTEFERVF
T1 sequence (O60563 whole entry partner): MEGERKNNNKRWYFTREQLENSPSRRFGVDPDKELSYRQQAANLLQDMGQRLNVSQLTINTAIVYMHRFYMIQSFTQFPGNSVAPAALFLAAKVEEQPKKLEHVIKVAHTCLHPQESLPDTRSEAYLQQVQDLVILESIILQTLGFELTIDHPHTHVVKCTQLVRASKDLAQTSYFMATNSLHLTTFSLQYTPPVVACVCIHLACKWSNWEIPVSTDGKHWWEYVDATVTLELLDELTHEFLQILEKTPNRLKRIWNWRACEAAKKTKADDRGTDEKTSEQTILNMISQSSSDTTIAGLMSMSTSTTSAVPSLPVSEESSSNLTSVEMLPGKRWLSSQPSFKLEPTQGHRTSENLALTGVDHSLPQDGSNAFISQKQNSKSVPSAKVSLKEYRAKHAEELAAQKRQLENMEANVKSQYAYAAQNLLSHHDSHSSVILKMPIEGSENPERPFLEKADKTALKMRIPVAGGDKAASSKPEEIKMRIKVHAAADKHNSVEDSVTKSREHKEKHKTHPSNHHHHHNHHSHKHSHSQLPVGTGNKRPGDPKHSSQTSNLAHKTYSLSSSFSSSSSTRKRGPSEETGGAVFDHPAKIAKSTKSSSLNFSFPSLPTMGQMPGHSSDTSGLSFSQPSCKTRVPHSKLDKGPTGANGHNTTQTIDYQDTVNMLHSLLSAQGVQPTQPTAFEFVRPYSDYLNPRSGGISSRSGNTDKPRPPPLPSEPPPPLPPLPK

With `CCNC1CCN(c2nc(NCc3nc4ccccc4[nH]3)n3ncc(Br)c3n2)CC1` [Example 300] the IC50 (CDK9/CycT1) was > 20000 nM, the IC50 ([1]; Homo sapiens, CAL-120, 96 h) was 16.2 nM and the DC50 [2] was 17.9 nM. For the same compound, the “(IC50 CDK12 high ATP) to (Degradation DC50 CDK12) ratio” value [2] was >1120 and the DC50 [3] was 1.03 nM.

In the case of `Brc1cnn2c(NCc3nc4ccccc4[nH]3)nc(N3CC4CCNC4C3)nc12` (stereo not drawn) [Example 271, 2-(2,3,3a,4,6,6a-hexahydro-1H-pyrrolo[2,3-c]pyrrol-5-yl)-N-(1H-benzimidazol-2-ylmethyl)-8-bromo-pyrazolo[1,5-a][1,3,5]triazin-4-amine], the IC50 (CDK9/CycT1) is reported as > 20000 nM, the IC50 ([1]; Homo sapiens, CAL-120, 96 h) is reported as 23.2 nM and the DC50 [2] is reported as 18.3 nM. The “(IC50 CDK12 high ATP) to (Degradation DC50 CDK12) ratio” value [2] was >1094 and the DC50 [3] was 1.21 nM.

For `CN1CCN(c2nc(NCc3nc4ccccc4[nH]3)n3ncc(C(F)(F)F)c3n2)CC1` [Example 297, N-[(1H-benzimidazol-2-yl)methyl]-2-(4-methylpiperazin-1-yl)-8-(trifluoromethyl)pyrazolo[1,5-a][1,3,5]triazin-4-amine], the IC50 (CDK9/CycT1) was > 20000 nM, the IC50 ([1]; Homo sapiens, CAL-120, 96 h) was 22.3 nM and the DC50 [2] was 7.59 nM. The “(IC50 CDK12 high ATP) to (Degradation DC50 CDK12) ratio” value [2] was 2294 and the DC50 [3] was 0.679 nM.

With `Brc1cnn2c(NCc3ncc(-c4ccccc4)[nH]3)nc(N3CCOCC3)nc12` [Example 23, 8-bromo-2-(morpholin-4-yl)-N-[(5-phenyl-1H-imidazol-2-yl)methyl]pyrazolo[1,5-a][1,3,5]triazin-4-amine] the IC50 (CDK9/CycT1) was 3240 nM, the DC50 [2] was 3.45 nM and the “(IC50 CDK12 high ATP) to (Degradation DC50 CDK12) ratio” value [2] was 452. The DC50 [3] was 1.02 nM.

In the case of `Fc1ccc2[nH]c(CNc3nc(N4CCOCC4)nc4c(C5CC5(F)F)cnn34)nc2c1` (single isomer, unassigned) [Example 314, 8-[(1R or S)-2,2-difluorocyclopropyl]-N-[(5-fluoro-1H-benzimidazol-2-yl)methyl]-2-(morpholin-4-yl)pyrazolo[1,5-a][1,3,5]triazin-4-amine], the IC50 (CDK9/CycT1) is reported as > 20000 nM, the IC50 ([1]; Homo sapiens, CAL-120, 96 h) is reported as 13 nM and the DC50 [2] is reported as 8.47 nM. The “(IC50 CDK12 high ATP) to (Degradation DC50 CDK12) ratio” value [2] was 1171 and the DC50 [3] was 1.11 nM.

In the case of `Brc1cnn2c(NCc3nc4ccccc4[nH]3)nc(N3C[C@@H]4C[C@H]3CN4)nc12` [Example 270, N-[(1H-benzimidazol-2-yl)methyl]-8-bromo-2-[(1S,4S)-2,5-diazabicyclo[2.2.1]heptan-2-yl]pyrazolo[1,5-a][1,3,5]triazin-4-amine], the IC50 (CDK9/CycT1) is reported as > 20000 nM, the IC50 ([1]; Homo sapiens, CAL-120, 96 h) is reported as 6.92 nM and the DC50 [2] is reported as 1.71 nM. The “(IC50 CDK12 high ATP) to (Degradation DC50 CDK12) ratio” value [2] was 8023 and the DC50 [3] was 0.19 nM.

In the case of `CC1CN(C)CCN1c1nc(NCc2nc3ccccc3[nH]2)n2ncc(Br)c2n1` (single isomer, unassigned; enantiomer 1) [Example 260, N-(1H-benzimidazol-2-ylmethyl)-8-bromo-2-[(2R or S)-2,4-dimethylpiperazin-1-yl]pyrazolo[1,5-a][1,3,5]triazin-4-amine (Enantiomer 1)], the IC50 (CDK9/CycT1) is reported as > 20000 nM, the IC50 [1] is reported as 6.03 nM and the DC50 [2] is reported as 1.78 nM. The “(IC50 CDK12 high ATP) to (Degradation DC50 CDK12) ratio” value [2] was 6819 and the DC50 [3] was 0.152 nM.

In the case of `Clc1cc2nc(CNc3nc(N4CCOCC4)nc4c(C5CC5)cnn34)[nH]c2cc1Cl` [Example 301, 8-cyclopropyl-N-[(5,6-dichloro-1H-benzimidazol-2-yl)methyl]-2-(morpholin-4-yl)pyrazolo[1,5-a][1,3,5]triazin-4-amine], the IC50 (CDK9/CycT1) is reported as > 20000 nM, the IC50 ([1]; Homo sapiens, CAL-120, 96 h) is reported as 5.74 nM and the DC50 [2] is reported as 4.37 nM. For the same compound, the “(IC50 CDK12 high ATP) to (Degradation DC50 CDK12) ratio” value [2] was 270 and the DC50 [3] was 0.59 nM.

`CN[C@H]1CCN(c2nc(NCc3nc4ccccc4[nH]3)n3ncc(Br)c3n2)C1` [Example 252, N-[(1H-benzimidazol-2-yl)methyl]-8-bromo-2-[(3S)-3-(methylamino)pyrrolidin-1-yl]pyrazolo[1,5-a][1,3,5]triazin-4-amine] was tested, and the IC50 (CDK9/CycT1) was > 20000 nM, the IC50 ([1]; Homo sapiens, CAL-120, 96 h) was 38.7 nM and the DC50 [2] was 1.17 nM. The “(IC50 CDK12 high ATP) to (Degradation DC50 CDK12) ratio” value [2] was >17030 and the DC50 [3] was 2.42 nM.

For `c1ccc2[nH]c(CNc3nc(N4CCOCC4)nc4c(C5CCC5)cnn34)nc2c1` [Example 263, N-[(1H-benzimidazol-2-yl)methyl]-8-cyclobutyl-2-(morpholin-4-yl)pyrazolo[1,5-a][1,3,5]triazin-4-amine], the IC50 (CDK9/CycT1) was > 20000 nM, the IC50 ([1]; Homo sapiens, CAL-120, 96 h) was 28.9 nM and the DC50 [2] was 23.4 nM. For the same compound, the “(IC50 CDK12 high ATP) to (Degradation DC50 CDK12) ratio” value [2] was 294 and the DC50 [3] was 1.82 nM.

In the case of `CN1CCN(c2nc(NCc3nc4cc(Cl)ccc4[nH]3)n3ncc(C(F)(F)F)c3n2)CC1` [Example 298, N-[(5-chloro-1H-benzimidazol-2-yl)methyl]-2-(4-methylpiperazin-1-yl)-8-(trifluoromethyl)pyrazolo[1,5-a][1,3,5]triazin-4-amine], the IC50 (CDK9/CycT1) is reported as > 20000 nM, the IC50 ([1]; Homo sapiens, CAL-120, 96 h) is reported as 4.05 nM and the DC50 [2] is reported as 4.22 nM. The “(IC50 CDK12 high ATP) to (Degradation DC50 CDK12) ratio” value [2] was 1968 and the DC50 [3] was 1.44 nM.

In the case of `Brc1cnn2c(NCc3nc4ccccc4[nH]3)nc(N3C[C@H]4C[C@@H]3CN4)nc12` [Example 269, N-[(1H-benzimidazol-2-yl)methyl]-8-bromo-2-[(1R,4R)-2,5-diazabicyclo[2.2.1]heptan-2-yl]pyrazolo[1,5-a][1,3,5]triazin-4-amine], the IC50 (CDK9/CycT1) is reported as > 20000 nM, the IC50 ([1]; Homo sapiens, CAL-120, 96 h) is reported as 7.31 nM and the DC50 [2] is reported as 3.33 nM. The “(IC50 CDK12 high ATP) to (Degradation DC50 CDK12) ratio” value [2] was 2588 and the DC50 [3] was 0.324 nM.

`N[C@@H]1CCN(c2nc(NCc3nc4ccccc4[nH]3)n3ncc(Br)c3n2)C1` [Example 250, 2-[(3R)-3-aminopyrrolidin-1-yl]-N-[(1H-benzimidazol-2-yl)methyl]-8-bromopyrazolo[1,5-a][1,3,5]triazin-4-amine] was tested, and the IC50 (CDK9/CycT1) was > 20000 nM, the IC50 ([1]; Homo sapiens, CAL-120, 96 h) was 3.49 nM and the DC50 [2] was 3.16 nM. The “(IC50 CDK12 high ATP) to (Degradation DC50 CDK12) ratio” value [2] was 3560 and the DC50 [3] was 0.407 nM.

For `CC(C)CNc1nc(NCc2nc3ccccc3[nH]2)n2ncc(Br)c2n1` [Example 285, N^4-[(1H-benzimidazol-2-yl)methyl]-8-bromo-N^2-(2-methylpropyl)pyrazolo[1,5-a][1,3,5]triazine-2,4-diamine], the IC50 (CDK9/CycT1) was > 20000 nM, the IC50 ([1]; Homo sapiens, CAL-120, 96 h) was 80.3 nM and the DC50 [2] was 32.3 nM. For the same compound, the “(IC50 CDK12 high ATP) to (Degradation DC50 CDK12) ratio” value [2] was 200 and the DC50 [3] was 3.46 nM.

With `Fc1cccc2[nH]c(CNc3nc(N4CCOCC4)nc4c(C(F)(F)F)cnn34)nc12` [Example 274, N-[(4-fluoro-1H-benzimidazol-2-yl)methyl]-2-(morpholin-4-yl)-8-(trifluoromethyl)pyrazolo[1,5-a][1,3,5]triazin-4-amine] the IC50 (CDK9/CycT1) was > 20000 nM, the IC50 ([1]; Homo sapiens, CAL-120, 96 h) was 4.89 nM and the DC50 [2] was 0.881 nM. For the same compound, the “(IC50 CDK12 high ATP) to (Degradation DC50 CDK12) ratio” value [2] was 64 and the DC50 [3] was 3.21 nM.

For `FC(F)(F)c1cnn2c(NCc3nc4cc(Cl)ccc4[nH]3)nc(N3CCOCC3)nc12` [Example 275, N-[(5-chloro-1H-benzimidazol-2-yl)methyl]-2-(morpholin-4-yl)-8-(trifluoromethyl)pyrazolo[1,5-a][1,3,5]triazin-4-amine], the IC50 (CDK9/CycT1) was > 20000 nM, the IC50 ([1]; Homo sapiens, CAL-120, 96 h) was 3.88 nM and the DC50 [2] was 1.7 nM. The “(IC50 CDK12 high ATP) to (Degradation DC50 CDK12) ratio” value [2] was 57 and the DC50 [3] was 0.303 nM.

With `CN(CC(C)(C)O)c1nc(NCc2nc3c(F)c(F)ccc3[nH]2)n2ncc(C3CC3)c2n1` [Example 292, 1-[(8-cyclopropyl-4-{[(4,5-difluoro-1H-benzimidazol-2-yl)methyl]amino}pyrazolo[1,5-a][1,3,5]triazin-2-yl)(methyl)amino]-2-methylpropan-2-ol] the IC50 (CDK9/CycT1) was > 6250 nM, the IC50 ([1]; Homo sapiens, CAL-120, 96 h) was 3.01 nM and the DC50 [2] was 0.878 nM. The “(IC50 CDK12 high ATP) to (Degradation DC50 CDK12) ratio” value [2] was 758 and the DC50 [3] was 0.643 nM.
